Source: patent EP0242855A2, “Crosslinking reaction inhibitor for collagen” (priority 1986, dated 1987)
“And” between values parts separate entries of the source, which are not always exact repeats. Equal values may be shown once. Read-outs that look alike come from different tables or passages of the source.

How the values were obtained:
collagen = molecular target: T1, collagen (Gallus gallus, UniProt P02457+P02467); format: biochemical, spring chicken
T1 construct: collagen obtained by grinding and deliming the bone of a spring chicken; from tissue; host or cells: bone of a spring chicken, ground and delimed (demineralised)
T1 sequence (P02467 78-1363): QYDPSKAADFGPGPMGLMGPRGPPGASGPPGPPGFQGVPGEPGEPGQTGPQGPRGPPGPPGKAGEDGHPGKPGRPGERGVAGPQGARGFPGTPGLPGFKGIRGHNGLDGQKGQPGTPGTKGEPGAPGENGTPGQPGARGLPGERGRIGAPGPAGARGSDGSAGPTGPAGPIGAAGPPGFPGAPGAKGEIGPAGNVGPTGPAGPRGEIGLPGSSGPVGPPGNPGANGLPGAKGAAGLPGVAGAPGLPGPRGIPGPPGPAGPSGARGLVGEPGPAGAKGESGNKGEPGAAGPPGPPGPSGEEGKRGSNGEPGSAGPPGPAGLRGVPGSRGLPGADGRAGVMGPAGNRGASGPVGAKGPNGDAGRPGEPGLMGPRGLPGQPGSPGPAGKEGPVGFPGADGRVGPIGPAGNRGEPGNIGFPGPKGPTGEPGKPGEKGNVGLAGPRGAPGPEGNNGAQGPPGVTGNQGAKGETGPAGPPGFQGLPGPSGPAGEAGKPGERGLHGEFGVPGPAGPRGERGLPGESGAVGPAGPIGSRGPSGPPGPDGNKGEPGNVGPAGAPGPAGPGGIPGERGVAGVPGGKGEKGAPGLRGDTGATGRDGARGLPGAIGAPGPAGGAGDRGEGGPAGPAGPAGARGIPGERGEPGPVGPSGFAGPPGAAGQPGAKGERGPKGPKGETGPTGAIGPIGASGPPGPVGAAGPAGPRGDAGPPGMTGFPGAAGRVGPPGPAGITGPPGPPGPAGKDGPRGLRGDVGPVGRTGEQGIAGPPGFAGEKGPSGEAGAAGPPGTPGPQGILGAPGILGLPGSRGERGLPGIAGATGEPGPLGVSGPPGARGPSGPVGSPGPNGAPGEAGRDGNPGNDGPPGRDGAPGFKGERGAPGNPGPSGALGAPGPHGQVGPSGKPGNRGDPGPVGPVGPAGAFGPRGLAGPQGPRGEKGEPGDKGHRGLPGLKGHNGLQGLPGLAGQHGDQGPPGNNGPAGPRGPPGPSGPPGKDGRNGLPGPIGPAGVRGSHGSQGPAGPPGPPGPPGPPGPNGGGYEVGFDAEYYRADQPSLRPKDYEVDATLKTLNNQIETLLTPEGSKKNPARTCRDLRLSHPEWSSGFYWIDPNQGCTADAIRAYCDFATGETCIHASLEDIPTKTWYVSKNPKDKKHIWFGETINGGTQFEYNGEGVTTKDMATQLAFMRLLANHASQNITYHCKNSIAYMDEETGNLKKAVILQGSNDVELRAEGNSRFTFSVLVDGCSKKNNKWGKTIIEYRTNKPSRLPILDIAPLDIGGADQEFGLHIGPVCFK
T1 sequence (P02457 152-1207): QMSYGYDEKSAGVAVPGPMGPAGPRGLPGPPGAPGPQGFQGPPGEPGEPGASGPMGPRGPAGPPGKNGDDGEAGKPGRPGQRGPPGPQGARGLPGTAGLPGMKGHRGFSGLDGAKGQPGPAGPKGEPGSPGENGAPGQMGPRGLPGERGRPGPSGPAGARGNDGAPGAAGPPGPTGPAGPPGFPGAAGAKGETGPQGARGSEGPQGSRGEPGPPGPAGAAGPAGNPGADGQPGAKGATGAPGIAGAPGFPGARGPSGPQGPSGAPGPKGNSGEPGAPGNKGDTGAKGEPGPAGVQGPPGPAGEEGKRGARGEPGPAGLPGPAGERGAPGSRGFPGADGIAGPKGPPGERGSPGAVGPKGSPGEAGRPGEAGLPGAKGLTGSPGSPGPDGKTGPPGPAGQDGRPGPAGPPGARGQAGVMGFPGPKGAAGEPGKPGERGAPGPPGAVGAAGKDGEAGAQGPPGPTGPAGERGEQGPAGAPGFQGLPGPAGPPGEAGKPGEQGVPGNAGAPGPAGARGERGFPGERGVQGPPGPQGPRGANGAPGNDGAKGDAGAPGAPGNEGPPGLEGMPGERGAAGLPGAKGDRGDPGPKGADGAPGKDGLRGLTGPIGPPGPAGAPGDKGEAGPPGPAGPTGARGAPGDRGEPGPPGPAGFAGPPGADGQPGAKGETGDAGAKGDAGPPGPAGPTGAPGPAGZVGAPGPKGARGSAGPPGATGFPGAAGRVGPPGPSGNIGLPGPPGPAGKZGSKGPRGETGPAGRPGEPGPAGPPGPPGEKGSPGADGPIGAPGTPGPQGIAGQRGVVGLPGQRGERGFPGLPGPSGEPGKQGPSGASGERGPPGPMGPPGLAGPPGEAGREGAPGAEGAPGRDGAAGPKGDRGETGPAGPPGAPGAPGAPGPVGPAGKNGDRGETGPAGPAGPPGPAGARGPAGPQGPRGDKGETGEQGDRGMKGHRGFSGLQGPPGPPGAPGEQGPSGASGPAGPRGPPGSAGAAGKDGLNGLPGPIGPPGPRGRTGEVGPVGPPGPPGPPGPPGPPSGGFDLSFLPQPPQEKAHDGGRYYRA

[1] = LD50 safety data, rat subcutaneous treatment; conditions: in vivo, sc
Source text: The silicon compound used in the present invention involves no problem with respect to safety. Shown below are data as to the safety of the silicon compounds.

[2] = silicon compound 0.01 %, collagen 100 mg, glucose 0.2 M, pH 7.4, 37 C, 4 weeks
[3] = silicon compound 0.01 %, collagen 100 mg, glucose 0.2 M, pH 7.4, 37 C, 4 weeks, solubilized by cutting with CNBr
[4] = silicon compound 0.05 %, collagen 100 mg, glucose 0.2 M, pH 7.4, 37 C, 4 weeks
[5] = silicon compound 0.05 %, collagen 100 mg, glucose 0.2 M, pH 7.4, 37 C, 4 weeks, solubilized by cutting with CNBr
[6] = silicon compound 0.1 %, collagen 100 mg, glucose 0.2 M, pH 7.4, 37 C, 4 weeks

SMILES	Portion A/ portion B (collagen; [2])	Soluble collagen (%) (collagen; [3])	Portion A/ portion B (collagen; [4])	Soluble collagen (%) (collagen; [5])	Portion A/ portion B (collagen; [6])	LD50 [1]	crosslinking and polymerization of collagen (collagen; addition of 0.01 to 0.1%)	Soluble collagen (%) (collagen; pH 7.4)	Portion A/ portion B (collagen; silicon compound 0.003 %, collagen 100 mg, glucose 0.2 M, pH 7.4, 37 C, 4 weeks)	Portion A/ portion B (collagen; silicon compound 0.03 %, collagen 100 mg, glucose 0.2 M, pH 7.4, 37 C, 4 weeks)	Portion A/ portion B (collagen; silicon compound 0.3 %, collagen 100 mg, glucose 0.2 M, pH 7.4, 37 C, 4 weeks)	Soluble collagen (%) (collagen; silicon compound 0.1 %, collagen 100 mg, glucose 0.2 M, pH 7.4, 37 C, 4 weeks, solubilized by cutting with CNBr)
O[Si](O)(O)c1ccccc1 [Phenyl silanetriol]	0.40	70%	0.41	72%								
C[Si](C)(O)O [Dimethyl silanediol, dimethyl silanediol]	0.43				0.35							
CCCCCCCCCCCC[Si](O)(O)O [Dodecyl silanetriol, dodecyl silanetriol]	0.45	68%	0.44	72%								
O[Si](O)(O)C1CCCCC1 [Cyclohexyl silanetriol, cyclohexyl silanetriol]	0.42	68%	0.45	73%								
C[Si](O)(O)O [Methyl silanetriol, methyl silanetriol]	0.40				0.40	≥ 1000 mg/kg	inhibits the crosslinking and polymerization of collagen	50% and 81% and 86% and 76% and 54%	0.55	0.35	0.54	
C[Si](O)(O)O[Si](C)(O)O [Dimer of methyl silnetriol]	0.35	80%	0.40	75%								
CC=C[Si](O)(O)O [Propenyl silanetriol, propenyl silanetriol]	0.45	71%			0.39							72%
